US20220340597A1, “HEXAHYDRO-1H-PYRAZINO[1,2-A]PYRAZINE COMPOUNDS FOR THE TREATMENT OF AUTOIMMUNE DISEASE” (Hoffmann-La Roche Inc., priority 2019, published 2022)

Legend:
human TLR7 = target: T1, human TLR7 (Homo sapiens, UniProt Q9NYK1); experiment: HEK293-Blue-hTLR-7 cells assay; format: cell-based; conditions: HEK293-Blue-hTLR7 cells, R848 stimulation, 20 hrs, SEAP reporter; read-out: HEK/hTLR7 IC50
T1 construct: host or cells: HEK293 (HEK-Blue hTLR7)
T1 sequence (Q9NYK1 27-1049): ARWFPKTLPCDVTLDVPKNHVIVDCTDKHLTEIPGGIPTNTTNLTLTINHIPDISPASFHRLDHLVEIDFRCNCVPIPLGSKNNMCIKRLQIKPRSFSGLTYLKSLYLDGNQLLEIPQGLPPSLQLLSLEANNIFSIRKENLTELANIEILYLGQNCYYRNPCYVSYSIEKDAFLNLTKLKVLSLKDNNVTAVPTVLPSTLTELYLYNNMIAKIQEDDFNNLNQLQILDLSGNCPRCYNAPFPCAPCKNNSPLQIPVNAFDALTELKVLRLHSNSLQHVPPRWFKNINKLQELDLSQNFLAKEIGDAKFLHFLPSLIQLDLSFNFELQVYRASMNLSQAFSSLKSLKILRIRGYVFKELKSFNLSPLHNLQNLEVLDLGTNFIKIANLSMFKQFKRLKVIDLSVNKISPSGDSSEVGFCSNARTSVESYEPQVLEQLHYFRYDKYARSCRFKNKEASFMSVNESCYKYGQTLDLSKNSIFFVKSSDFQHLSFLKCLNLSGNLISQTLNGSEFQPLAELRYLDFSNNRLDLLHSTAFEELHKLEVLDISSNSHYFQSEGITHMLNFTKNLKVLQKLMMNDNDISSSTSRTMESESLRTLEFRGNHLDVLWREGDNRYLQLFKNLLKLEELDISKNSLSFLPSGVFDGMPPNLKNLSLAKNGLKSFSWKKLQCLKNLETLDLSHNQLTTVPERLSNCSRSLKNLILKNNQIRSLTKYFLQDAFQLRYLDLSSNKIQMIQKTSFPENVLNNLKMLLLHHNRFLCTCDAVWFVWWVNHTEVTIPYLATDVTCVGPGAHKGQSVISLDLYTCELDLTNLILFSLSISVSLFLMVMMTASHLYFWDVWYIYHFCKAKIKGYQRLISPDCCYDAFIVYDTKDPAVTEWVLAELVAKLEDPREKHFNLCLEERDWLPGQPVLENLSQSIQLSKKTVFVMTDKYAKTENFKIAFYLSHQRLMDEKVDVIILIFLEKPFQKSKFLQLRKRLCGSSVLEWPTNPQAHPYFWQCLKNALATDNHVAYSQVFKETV

hERG channel = target: T2, hERG channel (Homo sapiens, UniProt Q12809); experiment: hERG channel inhibition assay (patch-clamp, CHOhERG cells); format: cell-based; conditions: for IC50 / IC20: CHOhERG cells, whole-cell patch-clamp; for IC20: human, CHO cells stably expressing hERG (CHOhERG); for hERG IC20/TLR7 IC50 / hERG IC20/TLR8 IC50 / hERG IC20/TLR9 IC50: safety ratio
T2 construct: expressed in transfected cells; host or cells: CHO (Chinese hamster ovary), CHOhERG
T2 sequence (Q12809 whole entry): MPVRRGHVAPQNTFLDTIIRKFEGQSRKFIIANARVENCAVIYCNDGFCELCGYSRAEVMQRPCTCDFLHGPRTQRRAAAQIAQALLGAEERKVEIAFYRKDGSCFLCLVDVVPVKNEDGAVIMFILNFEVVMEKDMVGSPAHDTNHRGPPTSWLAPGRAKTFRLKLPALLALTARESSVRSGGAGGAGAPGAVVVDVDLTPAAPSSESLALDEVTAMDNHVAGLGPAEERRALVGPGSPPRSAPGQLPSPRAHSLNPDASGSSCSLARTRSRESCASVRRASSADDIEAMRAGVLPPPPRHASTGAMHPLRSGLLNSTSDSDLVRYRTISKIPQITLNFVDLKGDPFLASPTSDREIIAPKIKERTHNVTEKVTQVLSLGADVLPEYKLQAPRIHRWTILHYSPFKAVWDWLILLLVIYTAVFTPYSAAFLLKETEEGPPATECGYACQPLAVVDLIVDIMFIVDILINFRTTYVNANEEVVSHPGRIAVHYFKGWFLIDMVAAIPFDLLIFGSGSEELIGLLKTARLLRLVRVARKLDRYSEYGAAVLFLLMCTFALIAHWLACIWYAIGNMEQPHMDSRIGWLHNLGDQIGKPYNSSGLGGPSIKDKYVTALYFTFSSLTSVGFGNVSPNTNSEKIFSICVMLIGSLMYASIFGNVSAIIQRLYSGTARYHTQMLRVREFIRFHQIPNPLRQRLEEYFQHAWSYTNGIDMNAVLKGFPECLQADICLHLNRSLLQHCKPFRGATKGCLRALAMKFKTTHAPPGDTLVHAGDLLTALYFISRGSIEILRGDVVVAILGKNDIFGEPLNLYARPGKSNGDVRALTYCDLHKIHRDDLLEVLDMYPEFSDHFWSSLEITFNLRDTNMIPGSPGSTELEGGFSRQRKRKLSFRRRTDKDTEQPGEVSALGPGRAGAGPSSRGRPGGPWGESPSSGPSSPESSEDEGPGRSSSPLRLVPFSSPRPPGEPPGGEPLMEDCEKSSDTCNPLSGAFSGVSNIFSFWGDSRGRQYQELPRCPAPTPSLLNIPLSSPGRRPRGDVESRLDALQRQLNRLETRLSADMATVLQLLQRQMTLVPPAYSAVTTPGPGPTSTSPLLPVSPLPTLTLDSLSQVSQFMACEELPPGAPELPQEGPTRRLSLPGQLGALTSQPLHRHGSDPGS
Outline: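 Whole-cell voltage-clamp recordings of IKhERG in CHO cells stably expressing human hERG, stimulated at 0.1 Hz. Compound applied at rising concentrations, each held 3–10 min to reach steady state; current amplitude and kinetics compared with pre-drug control set as 100%.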

| SMILES | IC50 (human TLR7) | IC50 (hERG channel) | IC20 (hERG channel) | hERG IC20/TLR7 IC50 (hERG channel) | hERG IC20/TLR8 IC50 (hERG channel) | hERG IC20/TLR9 IC50 (hERG channel) |
| --- | --- | --- | --- | --- | --- | --- |
| [2H]c1ccc2c(N3C[C@@H]4CN(Cc5ccc(N6C[C@@H]7C[C@H]6CN7)nc5C)CCN4[C@H](C)C3)ccc(C#N)c2n1 [Example 92, 5-[(4R,9aS)-8-[[6-[(1S,4S)-2,5-diazabicyclo[2.2.1]heptan-2-yl]-2-methyl-3-pyridyl]methyl]-4-methyl-3,4,6,7,9,9a-hexahydro-1H-pyrazino[1,2-a]pyrazin-2-yl]-2-deuterio-quinoline-8-carbonitrile] | 0.006 µM | > 20 µM | > 10 µM | >1666 | >1111 | >294 |
| [2H]c1ccc2c(N3C[C@@H]4CN(Cc5ccc(N6CC7CNCC(C6)O7)nc5C)CCN4[C@H](C)C3)ccc(C#N)c2n1 [Example 83, 5-[(4R,9aS)-4-methyl-8-[[2-methyl-6-(9-oxa-3,7-diazabicyclo[3.3.1]nonan-3-yl)-3-pyridyl]methyl]-3,4,6,7,9,9a-hexahydro-1H-pyrazino[1,2-a]pyrazin-2-yl]-2-deuterio-quinoline-8-carbonitrile] | 0.017 µM | > 20 µM | > 10 µM | >588 | >1428 | >196 |
| [2H]c1ccc2c(N3C[C@@H]4CN(Cc5ccc(N6CC7(CN(C)C7)C6)nc5C)CCN4[C@H](C)C3)ccc(C#N)c2n1 [Example 80, 5-[(4R,9aS)-4-methyl-8-[[2-methyl-6-(6-methyl-2,6-diazaspiro[3.3]heptan-2-yl)-3-pyridyl]methyl]-3,4,6,7,9,9a-hexahydro-1H-pyrazino[1,2-a]pyrazin-2-yl]-2-deuterio-quinoline-8-carbonitrile] | 0.023 µM | > 20 µM | > 10 µM | >434 | >2000 | >312 |
| C[C@@H]1CN(c2ccc(C#N)c3ncccc23)C[C@@H]2CN(Cc3ccc4c(c3)CNCC4)CCN21 (relative stereo) [Example 1] | 0.017 µM | > 20 µM | > 10 µM | >588 | >1000 | >172 |
| [2H]c1ccc2c(N3C[C@@H]4CN(Cc5ccc(N[C@H]6CNC[C@H]6F)nc5C)CCN4[C@H](C)C3)ccc(C#N)c2n1 [Example 82, 5-[(4R,9aS)-8-[[6-[[(3S,4R)-4-fluoropyrrolidin-3-yl]amino]-2-methyl-3-pyridyl]methyl]-4-methyl-3,4,6,7,9,9a-hexahydro-JH-pyrazino[1,2-a]pyrazin-2-yl]-2-deuterio-quinoline-8-carbonitrile] | 0.012 µM | > 20 µM | > 10 µM | >833 | >3333 | >243 |
